Results published in patent US11337971B2, “Dopamine D3 receptor selective antagonists/partial agonists and uses thereof” (THE UNITED STATES OF AMERICA, AS REPRESENTED BY THE …, priority 2018, dated 2022).
Where two headings read alike, the source gives them in different places.

Key:
human D2R = human D2R (Homo sapiens (Human), UniProt P14416); assay: Radioligand competition binding, [3H]N-methylspiperone, HEK293 membranes expressing human D2R; conditions: read-out: D2R Ki ± SEM
Procedure: (§1) Binding at dopamine D2-like receptors was determined using previously described methods. […] Upon reaching 80-90% confluence, cells were harvested using pre-mixed Earle's Balanced Salt Solution (EBSS) with […] EDTA (Life Technologies) and centrifuged at 3000 rpm for 10 min at 21° C. The supernatant was removed and the pellet was resuspended in 10 mL hypotonic lysis buffer (5 mM MgCl2.6H2O, 5 mM Tris, pH 7.4 at 4° C.) and centrifuged at 20,000 rpm for 30 min at 4° C. The pellet was then resuspended in fresh EBSS buffer made from 8.7 g/L Earle's Balanced Salts without phenol red (US Biological, Salem, Mass.), 2.2 g/L sodium bicarbonate, pH to 7.4. A Bradford protein assay (Bio-Rad, Hercules, Calif.) was used to determine the protein concentration and membranes were diluted to 500 μg/mL and stored in a −80° C. freezer for later use.
(§2) Radioligand competition binding experiments were conducted using thawed membranes. Test compounds were freshly dissolved in 30% DMSO and 70% H2O to a stock concentration of 100 μM. To assist the solubilization of free-base compounds, 10 μl of glacial acetic acid was added along with the DMSO. Each test compound was then diluted into 13 half-log serial dilutions using 30% DMSO vehicle; final test concentrations ranged from 10 μM to 10 pM. Previously frozen membranes were diluted in fresh EBSS to a 100 μg/mL (for hD2R or hD3R) or 200 μg/mL (hD4R) stock for binding. […] buffer with 0.2 mM sodium metabisulfite, 50 μl of diluted test compound, 100 μl of membranes (10 μg total protein for hD2R or hD3R, 20 μg total protein for hD4R), and 50 μl of [^3H]N-methylspiperone (0.4 nM final concentration; Perkin Elmer). Nonspecific binding was determined using 10 μM butaclamol (Sigma-Aldrich, St. Louis, Mo.) and total binding was determined with 30% DMSO vehicle. All compound dilutions were tested in triplicate and the reaction incubated for one hour at room temperature. The reaction was terminated by filtration through Whatman GF/B filters, presoaked for one hour in 0.5% polyethylenimine, using a Brandel R48 filtering manifold (Brandel Instruments, Gaithersburg, Md.). The filters were washed 3 times with 3 mL of ice cold EBSS buffer and transferred to scintillation vials. […] IC50 values for each compound were determined from dose-response curves and Ki values were calculated using the Cheng-Prusoff equation; these analyses were performed using GraphPad Prism version 5.00 for Windows (GraphPad Software, San Diego, Calif.). Reported Ki values were determined from least three independent experiments.
(§3) The binding affinities of the compounds were evaluated by performing competition binding studies with [^3H]N-methylspiperone using membranes prepared from HEK293 cells expressing either the human D2R or D3R.

human D3R = human D3R (Homo sapiens (Human), UniProt P35462); assay: Radioligand competition binding, [3H]N-methylspiperone, HEK293 membranes expressing human D3R; conditions: for D2/D3: ratio of Ki values; for Ki: read-out: D3R Ki ± SEM
Procedure: as §1, §2, §3

human D4R = human D4R (Homo sapiens (Human), UniProt P21917); assay: Radioligand competition binding, [3H]N-methylspiperone, HEK293 membranes expressing human D4R; conditions: Table 1A; for Ki: [3H]N-methylspiperone, read-out: D4R Ki ± SEM; for D4/D2 / D4/D3: ratio of Ki values
Procedure: Binding at dopamine D2-like receptors was determined using previously described methods. (Chen et al. “Tranylcypromine substituted cis-hydroxycyclobutylnaphthamides as potent and selective dopamine D(3) receptor antagonists.” J. Med. Chem. 2014, 57, 4962-4968) Membranes were prepared from HEK293 cells expressing human D2R, D3R or D4R, grown in a 50:50 mix of DMEM and Ham's F12 culture media, supplemented with 20 mM HEPES, 2 mM L-glutamine, 0.1 mM non-essential amino acids, 1× antibiotic/antimycotic, 10% heat-inactivated fetal bovine serum, and 200 μg/mL hygromycin (Life Technologies, Grand Island, N.Y.) and kept in an incubator at 37° C. and 5% CO2. Upon reaching 80-90% confluence, cells were harvested using pre-mixed Earle's Balanced Salt Solution (EBSS) with […] EDTA (Life Technologies) and centrifuged at 3000 rpm for 10 min at 21° C. The supernatant was removed and the pellet was resuspended in 10 mL hypotonic lysis buffer (5 mM MgCl2.6H2O, 5 mM Tris, pH 7.4 at 4° C.) and centrifuged at 20,000 rpm for 30 min at 4° C. The pellet was then resuspended in fresh EBSS buffer made from 8.7 g/L Earle's Balanced Salts without phenol red (US Biological, Salem, Mass.), 2.2 g/L sodium bicarbonate, pH to 7.4. A Bradford protein assay (Bio-Rad, Hercules, Calif.) was used to determine the protein concentration and membranes were diluted to 500 μg/mL and stored in a −80° C. freezer for later use.
Radioligand competition binding experiments were conducted using thawed membranes. Test compounds were freshly dissolved in 30% DMSO and 70% H2O to a stock concentration of 100 μM. To assist the solubilization of free-base compounds, 10 μl of glacial acetic acid was added along with the DMSO. Each test compound was then diluted into 13 half-log serial dilutions using 30% DMSO vehicle; final test concentrations ranged from 10 μM to 10 pM. Previously frozen membranes were diluted in fresh EBSS to a 100 μg/mL (for hD2R or hD3R) or 200 μg/mL (hD4R) stock for binding. Radioligand competition experiments were conducted in glass tubes containing 300 μl fresh EBSS buffer with 0.2 mM sodium metabisulfite, 50 μl of diluted test compound, 100 μl of membranes (10 μg total protein for hD2R or hD3R, 20 μg total protein for hD4R), and 50 μl of [^3H]N-methylspiperone (0.4 nM final concentration; Perkin Elmer). Nonspecific binding was determined using 10 μM butaclamol (Sigma-Aldrich, St. Louis, Mo.) and total binding was determined with 30% DMSO vehicle. All compound dilutions were tested in triplicate and the reaction incubated for one hour at room temperature. The reaction was terminated by filtration through Whatman GF/B filters, presoaked for one hour in 0.5% polyethylenimine, using a Brandel R48 filtering manifold (Brandel Instruments, Gaithersburg, Md.). The filters were washed 3 times with 3 mL of ice cold EBSS buffer and transferred to scintillation vials. 3 mL CytoScint liquid scintillation cocktail (MP Biomedicals, Solon, Ohio) was added and vials were counted using a Perkin Elmer Tri-Carb 2910 TR liquid scintillation counter (Waltham, Mass.). IC50 values for each compound were determined from dose-response curves and Ki values were calculated using the Cheng-Prusoff equation; these analyses were performed using GraphPad Prism version 5.00 for Windows (GraphPad Software, San Diego, Calif.). Reported Ki values were determined from least three independent experiments.

[1] = Table 1A, HEK 293 cells transfected with hD2LR, [3H]N-methylspiperone
[2] = Table 1A, HEK 293 cells transfected with hD3R, [3H]N-methylspiperone

Sequence of human D4R (P21917 whole entry): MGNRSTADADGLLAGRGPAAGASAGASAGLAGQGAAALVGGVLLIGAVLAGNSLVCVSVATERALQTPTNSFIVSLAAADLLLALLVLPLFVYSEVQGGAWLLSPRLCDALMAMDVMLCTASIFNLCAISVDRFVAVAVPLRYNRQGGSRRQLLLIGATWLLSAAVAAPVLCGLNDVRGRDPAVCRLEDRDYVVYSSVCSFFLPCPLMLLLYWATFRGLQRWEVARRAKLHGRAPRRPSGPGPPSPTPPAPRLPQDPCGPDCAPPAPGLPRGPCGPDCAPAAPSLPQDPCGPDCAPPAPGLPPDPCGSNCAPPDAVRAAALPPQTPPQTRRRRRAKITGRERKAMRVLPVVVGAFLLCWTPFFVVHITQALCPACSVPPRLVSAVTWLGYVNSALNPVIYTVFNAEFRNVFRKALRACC
Sequence of human D2R (P14416 whole entry): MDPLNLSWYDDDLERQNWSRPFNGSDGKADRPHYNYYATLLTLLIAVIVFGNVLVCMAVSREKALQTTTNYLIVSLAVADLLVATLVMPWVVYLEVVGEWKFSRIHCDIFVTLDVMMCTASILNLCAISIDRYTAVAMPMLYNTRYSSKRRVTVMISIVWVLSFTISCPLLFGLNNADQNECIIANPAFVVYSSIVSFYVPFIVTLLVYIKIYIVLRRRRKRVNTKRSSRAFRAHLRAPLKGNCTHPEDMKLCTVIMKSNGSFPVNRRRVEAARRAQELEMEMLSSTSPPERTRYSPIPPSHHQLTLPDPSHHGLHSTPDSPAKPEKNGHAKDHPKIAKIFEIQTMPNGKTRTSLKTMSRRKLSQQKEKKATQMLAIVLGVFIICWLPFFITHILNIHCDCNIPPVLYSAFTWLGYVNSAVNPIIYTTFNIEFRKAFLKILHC
Sequence of human D3R (P35462 whole entry): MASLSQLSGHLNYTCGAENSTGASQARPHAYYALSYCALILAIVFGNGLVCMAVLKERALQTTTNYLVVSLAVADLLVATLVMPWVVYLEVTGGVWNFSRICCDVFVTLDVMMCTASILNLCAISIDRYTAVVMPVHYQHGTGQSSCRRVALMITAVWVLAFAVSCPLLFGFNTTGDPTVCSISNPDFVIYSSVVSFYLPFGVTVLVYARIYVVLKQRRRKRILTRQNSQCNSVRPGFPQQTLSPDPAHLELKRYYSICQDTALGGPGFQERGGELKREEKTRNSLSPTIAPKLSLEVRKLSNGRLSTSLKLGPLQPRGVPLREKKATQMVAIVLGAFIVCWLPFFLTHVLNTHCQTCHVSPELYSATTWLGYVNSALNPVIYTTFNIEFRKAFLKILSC

Ki (human D2R; Table 1C) [nM] | D3R selectivity over D2R (D2R/D3R) (human D3R) [fold] | D2/D3 (human D3R; Table 1C) | Ki (human D3R; Table 1C) [nM] | Ki (human D2R; [1]) [nM] | Ki (human D3R; [2]) [nM] | D2/D3 (human D3R; Table 1A) | Ki (human D4R) [nM] | D4/D2 (human D4R) | D4/D3 (human D4R) | SMILES
18900 ± 2720 | 535 | 535 | 35.3 | – | – | – | – | – | – | CCc1cc(Cl)c(OC)c(N2CCN(C[C@@H](F)CCNC(=O)c3cc4ccccc4[nH]3)CC2)c1 [(S)-C4a, (S)-N-(4-(4-(3-chloro-5-ethyl-2-methoxyphenyl)piperazin-1-yl)-3-fluorobutyl)-1H-indole-2-carboxamidec]
– | – | – | – | 6.83 ± 0.53 | 0.2 ± 0.018 | 34.2 | 305 ± 70.5 | 44.7 | 1525 | CCc1cccc(N2CCN(CCC(O)CNC(=O)c3cc4ccccc4[nH]3)CC2)c1Cl (stereo not shown) [Compound 40, N-(4-(4-(2-Chloro-3-ethylphenyl)piperazin-1-yl)-2-hydroxybutyl)-1H-indole-2-carboxamide]
– | – | – | – | 5.64 ± 0.98 | 0.33 ± 0.085 | 17.1 | 819 ± 175 | 145.2 | 2482 | CCc1cccc(N2CCN(CCCCNC(=O)c3cn4ccccc4n3)CC2)c1Cl [Compound 22, N-(4-(4-(2-chloro-3-ethylphenyl)piperazin-1-yl)butyl)imidazo[1,2-a]pyridine-2-carboxamide]
– | – | – | – | 4.65 ± 1.24 | 0.94 ± 0.13 | 4.9 | 143 ± 3.18 | 30.8 | 152 | CCc1cccc(N2CCN(CCCCNC(=O)c3c(C)nc4sccn34)CC2)c1Cl [Compound 24, N-(4-(4-(2-chloro-3-ethylphenyl)piperazin-1-yl)butyl)-6-methylimidazo[2,1-b]thiazole-5-carboxamide]
21400 ± 1500 | 1650 | 1646 | 13 ± 2.94 | – | – | – | – | – | – | CCc1cc(Cl)c(OC)c(N2CCN(C[C@H](F)CCNC(=O)c3cc4ccccc4[nH]3)CC2)c1 [(R)-C4a, (R)-N-(4-(4-(3-chloro-5-ethyl-2-methoxyphenyl)piperazin-1-yl)-3-fluorobutyl)-1H-indole-2-carboxamide]
– | – | – | – | 150 ± 13.1 | 11.2 ± 2.66 | 13.4 | 1960 ± 344 | 13.1 | 175 | CCc1cccc(N2CCN(CC(O)CCNC(=O)c3nc(C)c[nH]3)CC2)c1Cl (stereo not shown) [Compound 27, N-(4-(4-(2-Chloro-3-ethylphenyl)piperazin-1-yl)-3-hydroxybutyl)-4-methyl-1H-imidazole-2-carboxamide]
– | – | – | – | 12.5 ± 1.07 | 1.14 ± 0.17 | 11.0 | 500 ± 30.9 | 40.0 | 439 | CCc1c[nH]c(C(=O)NCCCCN2CCN(c3cccc(CC)c3Cl)CC2)n1 [Compound 25, N-(4-(4-(2-Chloro-3-ethylphenyl)piperazin-1-yl)butyl)-4-ethyl-1H-imidazole-2-carboxamide]
1440 ± 48.8 | – | 61 | 23.6 ± 7.35 | – | – | – | – | – | – | CCc1cc2c(cc1N1CCN(CC(O)CCNC(=O)c3cc4ccccc4o3)CC1)OCO2 (stereo not shown) [Compound 122, N-(4-(4-(6-Ethylbenzo[d][1,3]dioxol-5-yl)piperazin-1-yl)-3-hydroxybutyl)benzofuran-2-carboxamide]
– | – | – | – | 12.2 ± 2.58 | 0.62 ± 0.096 | 19.7 | 529 ± 42.3 | 43.4 | 853 | CCc1cccc(N2CCN(CCCCNC(=O)c3nc(C)c[nH]3)CC2)c1Cl [Compound 26, N-(4-(4-(2-Chloro-3-ethylphenyl)piperazin-1-yl)butyl)-4-methyl-1H-imidazole-2-carboxamide]
– | – | – | – | 16.1 ± 1.2 | 1.28 ± 0.22 | 12.6 | 503 ± 157 | 31.2 | 393 | CCc1cccc(N2CCN(C/C=C/CNC(=O)c3nc(C)c[nH]3)CC2)c1Cl [Compound 35, (E)-N-(4-(4-(2-Chloro-3-ethylphenyl)piperazin-1-yl)but-2-en-1-yl)-4-methyl-1H-imidazole-2-carboxamide]
80.2 ± 13.8 | 215 | 215 | 0.373 | – | – | – | – | – | – | CCc1cccc(N2CCN(C[C@H](F)CCNC(=O)c3cc4ccccc4[nH]3)CC2)c1Cl [(R)-C5a, (R)-N-(4-(4-(2-chloro-3-ethylphenyl)piperazin-1-yl)-3-fluorobutyl)-1H-indole-2-carboxamide]
364 ± 101 | – | 15 | 24.5 ± 4.44 | – | – | – | – | – | – | CCc1cc(Cl)c(OC)c(N2CCN(CC(O)CCNC(=O)c3ccc4c(c3)OCO4)CC2)c1 (stereo not shown) [Compound 113a, N-(4-(4-(3-Chloro-5-ethyl-2-methoxyphenyl)piperazin-1-yl)-3-hydroxybutyl)benzo[d][1,3]dioxole-5-carboxamide]
891 ± 305 | > 1000 | 1060 | 0.84 | – | – | – | – | – | – | CCc1cccc(N2CCN(C[C@@H](F)CCNC(=O)c3cc4ccccc4[nH]3)CC2)c1Cl [(S)-C5a, (S)-N-(4-(4-(2-chloro-3-ethylphenyl)piperazin-1-yl)-3-fluorobutyl)-1H-indole-2-carboxamide]
– | – | – | – | 193 ± 40.5 | 4.23 ± 0.84 | 45.6 | 11300 | 58.5 | 2671 | CCc1cccc(N2CCN(CC(O)CCNC(=O)c3cn4ccccc4n3)CC2)c1Cl (stereo not shown) [Compound 23, N-(4-(4-(2-Chloro-3-ethylphenyl)piperazin-1-yl)-3-hydroxybutyl)imidazo[1,2-a]pyridine-2-carboxamide]
424 ± 79.9 | – | 140 | 3.02 ± 0.742 | – | – | – | – | – | – | CCc1cccc(N2CCN(CC(O)CCNC(=O)c3ccc4c(c3)OCO4)CC2)c1Cl (stereo not shown) [Compound 113b, N-(4-(4-(2-Chloro-3-ethylphenyl)piperazin-1-yl)-3-hydroxybutyl)benzo[d 1,3]dioxole-5-carboxamide]
